These results are taken from article PMC12140300, “Development of Carbon‐11 Labeled Pyrimidine Derivatives as Novel Positron Emission Tomography (PET) Agents Enabling Brain Sigma‐1 Receptor Imaging” (Advanced Science, 2025).

One assay addresses T1, σ1R (Cavia porcellus, UniProt Q60492).
T1 construct: guinea pig brain membranes protein; from tissue; host or cells: guinea pig brain membranes
Briefly: Ex vivo competitive radioligand binding assay for σ1R, [3H](+)-pentazocine. Also noted: species or system Dunkin Hartley guinea pig. Particulars: guinea pig brain membranes. Here is the method: (§1) The ex vivo binding affinities of σRs of CNY‐01 and CNY‐02 were measured using a competitive radioligand binding assay.^[ [35] ^]
(§2) The following specific radioligands and tissue sources were used: (a) σ 1R, [^3H] (+)‐pentazocine, Dunkin Hartley guinea pig brain membranes; (b) σ 2R, [^3H]‐DTG, Dunkin Hartley guinea pig brain membranes. Membrane preparation of brain tissue was performed following the previously reported method.4 Generally, for σ 1R binding test, guinea pig brain membranes protein (5‐10 mg), [^3H]‐(+)‐pentazocine (4 nM), test compounds solution in various concentrations (10^−5 to 10^−10 M) were incubated at 25 °C for 180 min in Tris‐HCl buffer (pH 8.0). For σ 2R binding study, the membrane suspension was incubated with [^3H]‐DTG (3 nM), different concentration test compounds, within 400 nM (+)‐SKF10047 to block σ 1R. Nonspecific binding was conducted in both binding assays under similar conditions, adding […] haloperidol. After incubation, the mixture was rapidly filtrated through Whatman GF/B glass filters, washed twice and transferred to scintillation vials, and the radioactivity bound was measured by a Beckman LS 6500 liquid scintillation counter. Inhibition constants (Ki) were calculated based on the Cheng and Prusoff equation after the IC50 values were obtained.

The subject of the next assay is σ2R. In words: Ex vivo competitive radioligand binding assay for σ2R, [3H]-DTG. Also on record: species or system Dunkin Hartley guinea pig. The settings on record: selectivity ratio, guinea pig brain membranes. As to the method:
as §1
as §2, with “Membrane preparation of brain tissue was performed following the previously reported method.4 Generally, for σ 1R binding test, guinea pig brain membranes protein (5‐10 mg), [^3H]‐(+)‐pentazocine (4 nM), test compounds solution in various concentrations (10^−5 to 10^−10 M) were incubated at 25 °C for 180 min in Tris‐HCl buffer (pH 8.0).” left out

One may read the Ki as the equilibrium dissociation constant of an inhibitor or competing ligand from its target. Read a low Ki as tighter binding.

T1 sequence (Q60492 whole entry): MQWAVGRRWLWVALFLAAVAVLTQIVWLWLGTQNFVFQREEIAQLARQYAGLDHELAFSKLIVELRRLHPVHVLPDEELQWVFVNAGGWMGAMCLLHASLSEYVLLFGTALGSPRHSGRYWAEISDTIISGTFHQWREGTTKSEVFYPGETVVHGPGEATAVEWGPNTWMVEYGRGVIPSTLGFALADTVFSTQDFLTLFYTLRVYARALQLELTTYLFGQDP

Consider `COc1ccc(-c2nc(C)c(Cl)c(OCCCN3CCCCC3)n2)cc1` [CNY-01, 5‐chloro‐2‐(4‐methoxyphenyl)‐4‐methyl‐6‐(3‐(piperidin‐1‐yl)propoxy)pyrimidine], for which, at σ1R, the affinity corresponds to a Ki of 3.88 nM. Further, in the assay on σ2R, the σ2R/σ1R was determined as 322.

On σ1R, `Cc1nc(-c2ccc(Cl)cc2)nc(OCCCN2CCN(C)CC2)c1Cl` [CNY-02, 5‐chloro‐2‐(4‐chlorophenyl)‐4‐methyl‐6‐(3‐(4‐methylpiperazin‐1‐yl)propoxy)pyrimidine] returned an inhibitory constant (Ki) of 2.05 nM. Besides, the σ2R/σ1R in the assay with σ2R is on record as 627.
